Laboratory results reported in patent publication EP0391644B1, “Aryl-substituted rhodanine derivatives” (ELI LILLY AND COMPANY, priority 1989, dated 1990).
Where “and” joins values, the source holds several entries; their conditions need not be identical. Equal values may be shown once.

Columns and labels:
[1] = system: Collagen-Induced Arthritis; assay: Collagen-Induced Arthritis Assay; format: in vivo, inbred Lewis male rats; settings: 5 days per week, hindpaw volume
Method: Type II collagen was isolated from bovine articular cartilage by the method of Strawich and Nimni [Biochemistry, 10, 3905 (1971)]. The collagen was dissolved in 0.1 M acetic acid and stored at -20°C. Type II collagen solution was diluted to 2 mg/ml concentration and emulsified thoroughly with an equal volume of incomplete Freund's adjuvant (ICFA). The emulsion containing approximately 0.5 mg of collagen was injected intradermally on day 0 to groups of 6 inbred Lewis male rats (Charles River Breeders; 170-200 g) at various sites in the dorsal area. The hindpaw volumes of each rat were measured and recorded three times a week throughout the test period to assess the inflammatory reaction. The test group animals received compounds under test as suspensions in carboxymethylcellulose vehicle, by oral gavage, 5 days per week (Monday-Friday), beginning on day 1. Control animals received vehicle without a test compound. At the end of the test (day 28 or 30), the blood of these animals was drawn by cardiac puncture and the serum anti-type II collagen antibody levels were estimated by passive hemaglutination technique, using glutaraldehyde treated sheep red cells, to which type II collagen is conjugated [Avrameas et al., Immunochemistry, 6, 67 (1969); Andriopoulos et al., Arth. Rheum., 19, 613 (1976)]. The cellular response or delayed-type hypersensitivity response to type II collagen was measured by the radiometric ear index assay [Kostiala, Immunology, 33, 561 (1977)]. In certain experiments, the bone damage occurring because of immunization with type II collagen and the effects of drugs were determined from the radiographs of the hind-paws of two or three representative animals from each group. Injections of ICFA without collagen II were employed in some rats as a negative control; these rats received only carboxymethycellulose vehicle during the test.
The % inhibition was calculated according to the following formula: % inhibition = [1-(Vt - Vv)/(Vc - Vv)] X 100 [formula] where Vt is the hindpaw volume of a compound-treated animal (test group), Vc is the hindpaw volume of a non-compound-treated animal (carboxymethylcellulose vehicle only-the control group), and Vv is the hindpaw volume of a vehicle (carboxymethylcellulose) treated animal which received ICFA with no collagen II (negative control group).

[2] = system: inflammation; assay: Carrageenin Assay; format: in vivo; settings: Rattus norvegicus, po, carrageenin-injected hind paws of rats, read-out: Percent Inhibition; for inhibition in vivo at 50 mg/kg: 50 mg/kg orally by gavage
Method: The compounds were evaluated for antiinflammatory activity in the test method described by C.A. Winter, Proc. Soc. Exp. Biol. Med., 111, 544 (1962). In this test, inflammation is created by injecting carrageenin into the hind paws of rats. Test compounds are administered prior to injection to determine percent inhibition of the subsequent inflammation in comparison with control animals.

[3] = system: adjuvant-induced arthritis; assay: Developing Adjuvant-Induced Arthritis Test in Rats; format: in vivo, male Lewis-Wistar rats; settings: Rattus norvegicus, po, 720 h; 50 mg/kg P.O. x 29; AUC of uninjected paw volumes, Days 16 through 30; read-out: % Inhibition of Uninjected Paw Volume Inflammation
[4] = system: Dystrophic mice (dy/dy); assay: Muscular Dystrophy Animal Model; format: in vivo
Method: Dystrophic mice (dy/dy) were obtained from Jackson Laboratories after weaning (approximately 21 days) and treatment with the compounds shown in Table V was begun at the first sign of dystrophy. The compounds that were tested were administered in the diet and lifespan was measured during the course of treatment. The food and water sources were located in different parts of the cage requiring the animals to walk from the food source to the water source to survive.

[5] = 0.03 percent by weight of compound in diet

In the case of `CC(C)(C)c1cc(C=C2SC(=S)NC2=O)cc(C(C)(C)C)c1O` [Example 1, 5-{[3,5-bis(1,1-dimethylethyl)-4-hydroxyphenyl]-methylene}-2-thioxo-4-thiazolidinone], the “% inhibition” value ([1]; 50 mg/kg by oral gavage) is reported as 100% and 53%, the inhibition in vivo at 30 mg/kg ([2]; 30 mg/kg orally by gavage) is reported as 67% and the inhibition in vivo at 50 mg/kg [3] is reported as 41%.
For `CC(C)(C)c1cc(C=C2SCNC2=O)cc(C(C)(C)C)c1O` [Example 2, 5-{[3,5-bis(1,1-dimethylethyl)-4-hydroxyphenyl]methylene}-4-thiazolidinone], the “Average Life Span” value [4, 5] was 57 days, the “Average Life Span” value ([4]; 0.08 percent by weight of compound in diet) was 116 days and 73 days and the “Average Life Span” value ([4]; 0.1 percent by weight of compound in diet) was 108 days. The “Average Life Span” value ([4]; 0.3 percent by weight of compound in diet) was 74 days, the “% inhibition” value ([1]; 30 mg/kg by oral gavage) was 91% and 50% and the “% inhibition” value ([1]; 50 mg/kg by oral gavage) was 100%. It also gave an inhibition in vivo at 50 mg/kg [2] of 46% and an inhibition in vivo at 50 mg/kg [3] of 81%.
For `CC(C)(C)c1cc(CC2SCNC2=O)cc(C(C)(C)C)c1O` (stereo not shown) [Example 3, 5-{[3,5-bis(1,1-dimethylethyl)-4-hydroxyphenyl]methyl}-4-thiazolidinone], the “% inhibition” value ([1]; 50 mg/kg by oral gavage) was 79%, the inhibition in vivo at 50 mg/kg [2] was 12% and the inhibition in vivo at 50 mg/kg [3] was 10%.
`COC(=O)N1CSC(=Cc2cc(C(C)(C)C)c(O)c(C(C)(C)C)c2)C1=O` [Example 4, 5-{[3,5-bis(1,1-dimethylethyl)-4-hydroxyphenyl]methylene}-4-oxo-3-thiazolidinecarboxylic acid, methyl ester] was tested, and the “% inhibition” value ([1]; 50 mg/kg by oral gavage) was 5%, the inhibition in vivo at 50 mg/kg [2] was 65% and the inhibition in vivo at 50 mg/kg [3] was 23%.
In the case of `CCCCN1CSC(=Cc2cc(C(C)(C)C)c(O)c(C(C)(C)C)c2)C1=O` [Example 16, 5-{[3,5-bis(1,1-dimethylethyl)-4-hydroxyphenyl]methylene}-3-butyl-4-thiazolidinone], the inhibition in vivo at 50 mg/kg [2] is reported as 40% and the inhibition in vivo at 50 mg/kg [3] is reported as 18%.
`CC(C)(C)c1cc(C=C2SCOC2=O)cc(C(C)(C)C)c1O` [Example 17, 4-{[3,5-bis(1,1-dimethylethyl)-4-hydroxyphenyl]methylene}-1,3-oxothiolan-5-one] was tested, and the “Average Life Span” value [4, 5] was 112 days, the inhibition in vivo at 50 mg/kg [2] was 18% and the inhibition in vivo at 50 mg/kg [3] was 61%.
